Source: patent US8765677B2 (priority 2009, dated 2014)
Entries after “also recorded” stand apart in the source; their conditions may differ. Where a SMILES comes first, the peptide text is derived from it.

Tests used:
N-type VGCCs = N-type VGCCs (Rattus norvegicus, UniProt Q02294); test: biochemical; type: binding
[1] = test system: native VGCCs in DRG sensory neurons; type: cell-based, rat; details: for maximum inhibition of inward Ba2+ current: 0.1 µM
[2] = test system: excitatory synaptic transmission between primary afferents and dorsal horn superficial lamina neurons; type: cell-based, rat
[3] = test system: nerve injury model of neuropathic pain; details: rat, in vivo
[4] = test system: mice with CFA-induced mechanical allodynia; details: mouse, in vivo, sc
Sprague-Dawley rats = details: rat, in vivo
[5] = test system: low-voltage-activated T-type VGCC in DRG neurons; type: cell-based, rat
[6] = biological target: recombinant N-type (Cav2.2) VGCCs α1B-b/α2δ1/β3 (Rattus norvegicus, UniProt Q02294); test: cell-based; type: cell-based
Sequence of recombinant N-type (Cav2.2) VGCCs α1B-b/α2δ1/β3 (Q02294 whole entry, looked up): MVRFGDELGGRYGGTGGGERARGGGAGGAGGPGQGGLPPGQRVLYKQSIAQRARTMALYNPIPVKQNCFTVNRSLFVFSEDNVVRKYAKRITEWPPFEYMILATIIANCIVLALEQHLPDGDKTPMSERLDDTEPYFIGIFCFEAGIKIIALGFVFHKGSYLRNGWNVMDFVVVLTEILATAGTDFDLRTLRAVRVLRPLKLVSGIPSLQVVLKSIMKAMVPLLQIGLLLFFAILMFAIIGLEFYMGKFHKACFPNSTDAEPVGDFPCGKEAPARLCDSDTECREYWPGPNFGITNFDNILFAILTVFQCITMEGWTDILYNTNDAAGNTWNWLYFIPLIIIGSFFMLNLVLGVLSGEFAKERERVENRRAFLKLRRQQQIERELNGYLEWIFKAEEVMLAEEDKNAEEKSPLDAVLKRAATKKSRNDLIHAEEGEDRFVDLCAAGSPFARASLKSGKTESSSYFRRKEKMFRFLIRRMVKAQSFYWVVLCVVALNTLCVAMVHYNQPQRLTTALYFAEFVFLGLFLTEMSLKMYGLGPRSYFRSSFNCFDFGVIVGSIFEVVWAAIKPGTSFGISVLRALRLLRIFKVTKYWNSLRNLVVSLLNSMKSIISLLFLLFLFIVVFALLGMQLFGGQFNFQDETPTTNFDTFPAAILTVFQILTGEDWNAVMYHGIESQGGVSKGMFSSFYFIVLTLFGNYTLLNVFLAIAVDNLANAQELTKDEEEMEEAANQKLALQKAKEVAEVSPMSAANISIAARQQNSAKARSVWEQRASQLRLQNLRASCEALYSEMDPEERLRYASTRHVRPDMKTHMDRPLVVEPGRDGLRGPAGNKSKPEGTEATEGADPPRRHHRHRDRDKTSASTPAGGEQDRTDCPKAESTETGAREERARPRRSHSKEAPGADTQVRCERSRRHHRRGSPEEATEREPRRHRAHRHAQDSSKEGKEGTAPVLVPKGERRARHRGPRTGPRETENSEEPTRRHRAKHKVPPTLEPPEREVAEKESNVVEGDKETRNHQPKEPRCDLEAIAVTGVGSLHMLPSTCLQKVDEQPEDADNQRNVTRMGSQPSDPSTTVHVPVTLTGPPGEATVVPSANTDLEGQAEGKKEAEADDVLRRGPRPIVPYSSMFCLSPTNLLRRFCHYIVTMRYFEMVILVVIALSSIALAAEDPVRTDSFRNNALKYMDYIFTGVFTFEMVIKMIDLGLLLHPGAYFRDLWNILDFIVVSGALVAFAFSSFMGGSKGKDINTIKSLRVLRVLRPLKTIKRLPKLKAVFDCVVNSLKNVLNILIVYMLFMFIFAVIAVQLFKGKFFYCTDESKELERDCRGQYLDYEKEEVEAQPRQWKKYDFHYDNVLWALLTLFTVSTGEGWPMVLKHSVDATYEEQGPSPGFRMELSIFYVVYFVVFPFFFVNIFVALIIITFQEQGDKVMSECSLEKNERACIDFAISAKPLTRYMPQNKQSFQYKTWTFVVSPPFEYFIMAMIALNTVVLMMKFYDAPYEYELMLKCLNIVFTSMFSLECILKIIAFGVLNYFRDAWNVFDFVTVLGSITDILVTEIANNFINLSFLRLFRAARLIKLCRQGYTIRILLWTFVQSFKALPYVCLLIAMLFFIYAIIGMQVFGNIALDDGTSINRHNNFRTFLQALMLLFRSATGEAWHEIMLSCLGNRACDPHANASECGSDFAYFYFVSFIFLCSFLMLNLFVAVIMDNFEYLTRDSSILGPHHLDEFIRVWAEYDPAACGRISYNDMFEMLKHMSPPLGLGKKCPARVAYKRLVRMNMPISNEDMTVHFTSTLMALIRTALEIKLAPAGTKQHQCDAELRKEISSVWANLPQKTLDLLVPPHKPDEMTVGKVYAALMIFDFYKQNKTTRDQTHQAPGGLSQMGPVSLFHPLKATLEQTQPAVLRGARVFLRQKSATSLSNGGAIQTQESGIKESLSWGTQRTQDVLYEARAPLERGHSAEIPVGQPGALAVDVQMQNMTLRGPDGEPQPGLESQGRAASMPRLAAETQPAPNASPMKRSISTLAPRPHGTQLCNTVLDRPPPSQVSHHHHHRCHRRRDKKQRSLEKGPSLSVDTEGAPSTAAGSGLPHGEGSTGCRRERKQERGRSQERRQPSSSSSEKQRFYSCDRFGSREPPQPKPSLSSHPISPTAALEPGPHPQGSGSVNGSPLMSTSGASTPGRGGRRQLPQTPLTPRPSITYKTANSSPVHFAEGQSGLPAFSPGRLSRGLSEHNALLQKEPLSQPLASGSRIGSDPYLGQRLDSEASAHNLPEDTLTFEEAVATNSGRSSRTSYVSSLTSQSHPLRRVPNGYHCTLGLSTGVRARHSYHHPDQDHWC

[7] = biological target: recombinant N-type (Cav2.2) VGCCs α1B-b/α2δ1/β2a (Rattus norvegicus, UniProt Q02294); type: cell-based
Sequence of recombinant N-type (Cav2.2) VGCCs α1B-b/α2δ1/β2a (Q02294 whole entry, looked up): as above

[8] = biological target: recombinant Cav1.2 α1C (L-type) channels (α/α2δ1/β3) (Oryctolagus cuniculus, UniProt P15381); type: cell-based, rabbit
[9] = biological target: recombinant Cav1.3 α1D (L-type) channels (α/α2δ1/β3) (Rattus norvegicus, UniProt P27732); type: cell-based
[10] = biological target: recombinant Cav2.3 α1E (R-type) channels (α/α2δ1/β3) (Rattus norvegicus, UniProt Q07652); type: cell-based
Sequence of recombinant Cav2.3 α1E (R-type) channels (α/α2δ1/β3) (Q07652 whole entry, looked up): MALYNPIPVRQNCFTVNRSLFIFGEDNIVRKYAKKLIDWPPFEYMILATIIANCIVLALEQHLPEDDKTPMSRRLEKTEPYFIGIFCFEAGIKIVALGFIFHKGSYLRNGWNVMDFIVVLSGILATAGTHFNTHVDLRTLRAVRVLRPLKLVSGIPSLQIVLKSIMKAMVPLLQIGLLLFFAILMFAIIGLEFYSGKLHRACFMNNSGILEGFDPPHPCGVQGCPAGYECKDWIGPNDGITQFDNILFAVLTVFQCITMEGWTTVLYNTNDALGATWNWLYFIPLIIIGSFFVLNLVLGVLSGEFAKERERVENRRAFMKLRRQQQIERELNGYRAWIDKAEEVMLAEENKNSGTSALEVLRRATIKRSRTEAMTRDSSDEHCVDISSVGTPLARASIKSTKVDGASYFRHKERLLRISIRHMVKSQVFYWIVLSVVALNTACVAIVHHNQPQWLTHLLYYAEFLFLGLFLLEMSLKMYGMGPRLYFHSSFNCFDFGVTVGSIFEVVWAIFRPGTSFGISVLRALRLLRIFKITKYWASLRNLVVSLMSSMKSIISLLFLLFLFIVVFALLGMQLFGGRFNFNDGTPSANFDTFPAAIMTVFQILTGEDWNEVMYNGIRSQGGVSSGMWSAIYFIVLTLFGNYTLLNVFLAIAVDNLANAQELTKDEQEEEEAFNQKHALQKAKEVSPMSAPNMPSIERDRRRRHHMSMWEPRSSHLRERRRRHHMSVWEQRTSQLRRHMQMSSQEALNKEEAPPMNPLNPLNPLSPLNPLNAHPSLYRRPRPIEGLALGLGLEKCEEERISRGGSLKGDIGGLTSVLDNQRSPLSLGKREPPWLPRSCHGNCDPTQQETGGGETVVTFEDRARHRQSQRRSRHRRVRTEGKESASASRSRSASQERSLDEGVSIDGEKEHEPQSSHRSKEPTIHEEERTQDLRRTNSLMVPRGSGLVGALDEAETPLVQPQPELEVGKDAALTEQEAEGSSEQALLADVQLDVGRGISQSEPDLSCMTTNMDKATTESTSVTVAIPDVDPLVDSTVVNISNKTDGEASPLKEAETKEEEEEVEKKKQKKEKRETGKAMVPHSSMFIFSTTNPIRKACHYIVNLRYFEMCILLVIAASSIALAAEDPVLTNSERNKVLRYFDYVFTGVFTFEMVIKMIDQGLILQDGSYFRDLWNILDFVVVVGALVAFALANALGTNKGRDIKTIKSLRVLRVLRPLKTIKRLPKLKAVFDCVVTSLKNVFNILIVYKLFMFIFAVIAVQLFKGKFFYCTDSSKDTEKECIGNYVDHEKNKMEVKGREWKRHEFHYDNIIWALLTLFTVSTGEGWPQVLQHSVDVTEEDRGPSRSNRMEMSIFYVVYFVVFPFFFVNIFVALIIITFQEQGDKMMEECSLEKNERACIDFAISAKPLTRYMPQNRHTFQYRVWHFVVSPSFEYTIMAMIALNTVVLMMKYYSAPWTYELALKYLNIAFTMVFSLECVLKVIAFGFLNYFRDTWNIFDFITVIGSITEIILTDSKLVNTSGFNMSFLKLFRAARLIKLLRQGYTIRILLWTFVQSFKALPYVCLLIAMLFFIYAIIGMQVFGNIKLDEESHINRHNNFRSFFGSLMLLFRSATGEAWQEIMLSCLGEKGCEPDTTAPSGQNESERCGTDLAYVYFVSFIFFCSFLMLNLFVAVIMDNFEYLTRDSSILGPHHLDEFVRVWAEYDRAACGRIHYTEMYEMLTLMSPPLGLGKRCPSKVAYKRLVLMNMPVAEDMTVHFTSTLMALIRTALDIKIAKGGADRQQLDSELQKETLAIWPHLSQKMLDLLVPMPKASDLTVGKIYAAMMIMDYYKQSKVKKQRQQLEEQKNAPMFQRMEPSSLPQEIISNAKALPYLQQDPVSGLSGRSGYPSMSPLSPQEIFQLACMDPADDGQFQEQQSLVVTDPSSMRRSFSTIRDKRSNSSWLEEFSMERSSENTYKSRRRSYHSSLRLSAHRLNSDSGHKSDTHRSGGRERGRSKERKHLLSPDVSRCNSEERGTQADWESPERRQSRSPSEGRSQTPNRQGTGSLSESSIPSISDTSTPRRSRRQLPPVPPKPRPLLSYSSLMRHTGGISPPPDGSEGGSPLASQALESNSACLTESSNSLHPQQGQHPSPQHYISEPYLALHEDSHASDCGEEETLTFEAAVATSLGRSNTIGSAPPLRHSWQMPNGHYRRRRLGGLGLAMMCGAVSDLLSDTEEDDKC

[11] = biological target: recombinant Cav2.1 α1A (P/Q-type) channels (α/α2δ1/β3) (Oryctolagus cuniculus, UniProt P27884); test: cell-based; set-up: species or system rabbit

Sequence of N-type VGCCs (Q02294 whole entry, looked up): as the sequence (Q02294 whole entry, looked up) above

Structure (SMILES)	displacement of 125I-GVIA binding (N-type VGCCs)	IC50 (N-type VGCCs; affinity) [nM]	IC50 (N-type VGCCs; pIC50) [nM]	maximum inhibition of inward Ba2+ current [1] [%]	EPSC amplitude recovered after washout [2]	reduction of evoked monosynaptic EPSC amplitude [2] [%]	relief of mechanical allodynia [3]	reversal of incapacitance [4]	side effects (shakes, tail twitching, serpentine tail movements) (Sprague-Dawley rats)	effect on P/Q- and L-type VGCC current components [1]	effect on T-type current [5]	Hill slope [6]	Hill slope [7]	effect on Cav1.2 channels [8]	effect on Cav1.3 channels [9]	effect on Cav2.3 channels [10]	effect on Cav2.1 channels [11]
C[C@@H]1NC(=O)CNC(=O)[C@H](CCCCN)NC(=O)CNC(=O)[C@H](CCCCN)NC(=O)[C@@H](N)CSSC[C@@H]2NC(=O)[C@@H]3CSSC[C@@H](C(N)=O)NC(=O)[C@H](CCCNC(=N)N)NC(=O)CNC(=O)[C@H](CO)NC(=O)[C@H](CCCNC(=N)N)NC(=O)[C@H](CSSC[C@H](NC(=O)[C@H](CO)NC1=O)C(=O)N[C@@H](CCCNC(=N)N)C(=O)N[C@@H](CCCNC(=N)N)C(=O)N[C@@H]([C@@H](C)O)C(=O)N[C@@H](CO)C(=O)N[C@@H](Cc1ccc(O)cc1)C(=O)N[C@@H](CC(=O)O)C(=O)N3)NC(=O)[C@H](CO)NC(=O)CNC(=O)[C@H]([C@@H](C)O)NC2=O [CVIE, CKGKGASCRRTSYDCCTGSCRSGRC]	fully displaced	0.037	0.02	~50	78±7 % of control	67±5	completely relieves mechanical allodynia; also recorded: relieved mechanical allodynia	highly significant reversal of incapacitance; also recorded: subsided	substantially decreased side effects compared to CVID								
CC(C)C[C@@H]1NC(=O)[C@H](CCCNC(=N)N)NC(=O)[C@@H]2CSSC[C@@H]3NC(=O)[C@H](CO)NC(=O)[C@H](C)NC(=O)CNC(=O)[C@H](CCCCN)NC(=O)CNC(=O)[C@H](CCCCN)NC(=O)[C@@H](N)CSSC[C@H](NC(=O)[C@H](CSSC[C@@H](C(N)=O)NC(=O)[C@H](CCCNC(=N)N)NC(=O)CNC1=O)NC(=O)[C@H](CC(=O)O)NC(=O)[C@H](Cc1ccc(O)cc1)NC(=O)[C@H](CO)NC(=O)[C@H]([C@@H](C)O)NC(=O)[C@H](CCCNC(=N)N)NC(=O)[C@H](CCCNC(=N)N)NC3=O)C(=O)N[C@@H]([C@@H](C)O)C(=O)NCC(=O)N[C@@H](CO)C(=O)N2 [CVIF] (HELM PEPTIDE1{C.K.G.K.G.A.S.C.R.R.T.S.Y.D.C.C.T.G.S.C.R.L.G.R.C.[am]}$PEPTIDE1,PEPTIDE1,1:R3-16:R3|PEPTIDE1,PEPTIDE1,8:R3-20:R3|PEPTIDE1,PEPTIDE1,15:R3-25:R3$$$V2.0)	fully displaced			~50	73±10 % of control	61±7	completely relieves mechanical allodynia; also recorded: relieved mechanical allodynia	significant reversal of incapacitance; also recorded: subsided	substantially decreased side effects compared to CVID	does not affect	not affected						
C[C@@H](O)[C@@H]1NC(=O)[C@H](Cc2ccc(O)cc2)NC(=O)[C@@H]2C[C@@H](O)CN2C(=O)[C@H](CC(N)=O)NC(=O)[C@@H]2CSSC[C@@H]3NC(=O)[C@H](CO)NC(=O)[C@H](CO)NC(=O)CNC(=O)[C@@H]4C[C@@H](O)CN4C(=O)[C@H](CO)NC(=O)[C@H](CCCCN)NC(=O)[C@@H](N)CSSC[C@H](NC(=O)[C@H](CSSC[C@@H](C(=O)N[C@@H](Cc4ccc(O)cc4)C(N)=O)NC(=O)[C@H](CCCN=C(N)N)NC(=O)[C@H](CCCCN)NC1=O)NC(=O)[C@H](CC(N)=O)NC(=O)[C@H](Cc1ccc(O)cc1)NC(=O)[C@H](CO)NC(=O)[C@H]([C@@H](C)O)NC(=O)[C@@H]1C[C@@H](O)CN1C(=O)[C@H](CO)NC3=O)C(=O)N[C@@H](CCCN=C(N)N)C(=O)N[C@@H](CO)C(=O)N2 [GVIA, reference compound]		0.024	0.0251														
CC(C)C[C@@H]1NC(=O)[C@H](CCCNC(=N)N)NC(=O)[C@@H]2CSSC[C@@H]3NC(=O)[C@H](CO)NC(=O)[C@H](C)NC(=O)CNC(=O)[C@H](CCCCN)NC(=O)CNC(=O)[C@H](CCCCN)NC(=O)[C@@H](N)CSSC[C@H](NC(=O)[C@H](CSSC[C@@H](C(N)=O)NC(=O)[C@H](CCCNC(=N)N)NC(=O)CNC1=O)NC(=O)[C@H](CC(=O)O)NC(=O)[C@H](Cc1ccc(O)cc1)NC(=O)[C@H](CO)NC(=O)[C@H]([C@@H](C)O)NC(=O)[C@H](CCCCN)NC(=O)[C@H](CCCNC(=N)N)NC3=O)C(=O)N[C@@H]([C@@H](C)O)C(=O)NCC(=O)N[C@@H](CO)C(=O)N2 [[R10K]CVIF] (HELM PEPTIDE1{C.K.G.K.G.A.S.C.R.K.T.S.Y.D.C.C.T.G.S.C.R.L.G.R.C.[am]}$PEPTIDE1,PEPTIDE1,1:R3-16:R3|PEPTIDE1,PEPTIDE1,8:R3-20:R3|PEPTIDE1,PEPTIDE1,15:R3-25:R3$$$V2.0)							relieved mechanical allodynia	highly significant reversal of incapacitance; also recorded: sustained	substantially decreased side effects compared to CVID			0.65±0.04	0.86±0.04	neither [R10K]CVIE or [R10K]CVIF had any effect	neither [R10K]CVIE or [R10K]CVIF had any effect	neither [R10K]CVIE or [R10K]CVIF had any effect	neither [R10K]CVIE or [R10K]CVIF had any effect
